Reference: patent publication US7906522B2, “2-aminoquinazoline derivatives” (Kyowa Hakko Kirin Co., Ltd, priority 2005, dated 2011)

Target: T1, Activated human p38α (Homo sapiens, UniProt Q16539)
T1 construct: purchased Upstate Biotechnology Inc. 14-251
Assay: p38MAP kinase inhibition test
Type: biochemical
Details: at a concentration of 1 μmol/L; substrate myelin basic protein, ATP 20 μmol/L, [γ-32P]ATP; read-out: enzyme inhibitory activity
Method in brief: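 Phosphorylation of myelin basic protein (20 μg/assay) by the kinase measured via [γ-32P]ATP incorporation at 20 μmol/L ATP, pH 7.2 MOPS buffer, 30° C. for 15 min. Labelled substrate bound to P81 paper, washed, and quantified by scintillation counting; compounds added in DMSO.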

T1 sequence (Q16539 whole entry): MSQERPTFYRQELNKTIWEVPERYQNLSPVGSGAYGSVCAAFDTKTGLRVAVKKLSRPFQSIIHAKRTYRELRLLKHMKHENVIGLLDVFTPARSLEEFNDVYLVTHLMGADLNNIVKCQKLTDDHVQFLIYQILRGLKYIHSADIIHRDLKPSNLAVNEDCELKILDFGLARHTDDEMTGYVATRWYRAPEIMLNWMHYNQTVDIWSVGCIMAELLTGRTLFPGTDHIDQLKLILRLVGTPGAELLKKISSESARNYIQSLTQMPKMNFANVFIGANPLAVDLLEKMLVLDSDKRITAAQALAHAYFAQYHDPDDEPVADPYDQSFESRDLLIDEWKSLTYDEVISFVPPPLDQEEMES

Row | Compound | inhibition at 1 µM
1 | Cc1ccccc1-c1cc2cnc(N[C@@H](C)C3CCCCC3)nc2cc1O [Compound 172, (S)-2-(1-cyclohexylethylamino)-7-hydroxy-6-(2-methylphenyl)quinazoline] | ≥ 50%
2 | CCCC(CCC)Nc1ncc2cc(-c3ccccc3C)c(O)cc2n1 [Compound 174, 7-Hydroxy-6-(2-methylphenyl)-2-(4-heptylamino)quinazoline] | ≥ 50%
3 | Cc1ccccc1-c1cc2cnc(Nc3c(C)cccc3C(C)C)nc2cc1O [Compound 177, 7-Hydroxy-2-(2-isopropyl-6-methylanilino)-6-(2-methylphenyl)quinazoline] | ≥ 50%
4 | Cc1ccccc1-c1cc2cnc(Nc3c(Cl)cc([N+](=O)[O-])cc3Cl)nc2cc1O [Compound 179, 2-(2,6-Dichloro-4-nitroanilino)-7-hydroxy-6-(2-methylphenyl)quinazoline] | ≥ 50%
5 | COc1cc2nc(NC(C)C)ncc2cc1-c1ccccc1C(=O)N1CCOCC1 [Compound 188, 2-Isopropylamino-7-methoxy-6-[2-(morpholinocarbonyl)phenyl]quinazoline] | ≥ 50%
6 | COc1cc2nc(NC(C)C)ncc2cc1-c1cccc(OCc2ccccc2)c1 [Compound 195, 6-[3-(Benzyloxy)phenyl]-2-isopropylamino-7-methoxyquinazoline] | ≥ 50%
7 | COc1cc2nc(NC(C)C)ncc2cc1-c1cccc(C=O)c1 [Compound 197, 6-(3-Formylphenyl)-2-isopropylamino-7-methoxyquinazoline] | ≥ 50%
8 | COc1cc2nc(NC(C)C)ncc2cc1-c1cccc(C(C)=O)c1 [Compound 199, 6-(3-Acetylphenyl)-2-isopropylamino-7-methoxyquinazoline] | ≥ 50%
9 | COc1cc2nc(NC(C)C)ncc2cc1-c1cccc(OC(C)=O)c1 [Compound 202, 6-(3-Acetoxyphenyl)-2-isopropylamino-7-methoxyquinazoline] | ≥ 50%
10 | COc1cc2nc(NC(C)C)ncc2cc1-c1ccco1 [Compound 208, 6-(2-Furyl)-2-isopropylamino-7-methoxyquinazoline] | ≥ 50%
11 | COc1cc2nc(NC(C)C)ncc2cc1-c1cccc(NC(=O)c2ccc[nH]2)c1 [Compound 209, 2-Isopropylamino-7-methoxy-6-{3-[(1H-pyrrol-2-yl)carbonylamino]phenyl}quinazoline] | ≥ 50%
12 | COc1cc2nc(NC(C)C)ncc2cc1-c1cccc(NC(=O)Nc2ccccc2)c1 [Compound 210, 2-Isopropylamino-7-methoxy-6-[3-(3-phenylureido)phenyl]quinazoline] | ≥ 50%
13 | COc1cc2nc(NC(C)C)ncc2cc1-c1cccc(NC(=O)c2cc3ccccc3[nH]2)c1 [Compound 211, 6-{3-[(1H-indol-2-yl)carbonylamino]phenyl}-2-isopropylamino-7-methoxyquinazoline] | ≥ 50%
14 | CNC(=O)Nc1cccc(-c2cc3cnc(NC(C)C)nc3cc2OC)c1 [Compound 212, 2-Isopropylamino-7-methoxy-6-[3-(3-methylureido)phenyl]quinazoline] | ≥ 50%
15 | COc1cc2nc(NC(C)C)ncc2cc1-c1cccc(NC(=O)c2ccc(C(F)(F)F)cc2)c1 [Compound 213, 2-Isopropylamino-7-methoxy-6-{3-[(4-trifluoromethylphenyl)carbonylamino]phenyl}quinazoline] | ≥ 50%
16 | COc1cc2nc(NC(C)C)ncc2cc1-c1cccc(NC(=O)c2ccc(OC(F)(F)F)cc2)c1 [Compound 214, 2-Isopropylamino-7-methoxy-6-{3-[(4-trifluoromethoxyphenyl)carbonylamino]phenyl}quinazoline] | ≥ 50%
17 | COc1cc2nc(NC(C)C)ncc2cc1-c1cccc(NC(=O)c2ccncc2)c1 [Compound 215, 2-Isopropylamino-7-methoxy-6-{3-[(4-pyridyl)carbonylamino]phenyl}quinazoline] | ≥ 50%
18 | COc1cc2nc(NC(C)C)ncc2cc1-c1cccc(NC(=O)c2cccc(C(F)(F)F)c2)c1 [Compound 216, 2-Isopropylamino-7-methoxy-6-{3-[(3-trifluoromethylphenyl)carbonylamino]phenyl}quinazoline] | ≥ 50%

The remaining lines, values ahead:

Row | inhibition at 1 µM | Compound
19 | ≥ 50% | Cc1ccccc1-c1cc2cnc(N[C@@H](C)C(C)C)nc2cc1O [Compound 173, (S)-2-(3-methyl-2-butylamino)-7-hydroxy-6-(2-methylphenyl)quinazoline]
20 | ≥ 50% | COc1cc2nc(NC(C)C)ncc2cc1-c1ccccc1CO [Compound 182, 6-[2-(Hydroxymethyl)phenyl]-2-isopropylamino-7-methoxyquinazoline]
21 | ≥ 50% | COc1cc2nc(NC(C)C)ncc2cc1-c1ccccc1C#N [Compound 183, 6-(2-Cyanophenyl)-2-isopropylamino-7-methoxyquinazoline]
22 | ≥ 50% | COc1cc2nc(NC(C)C)ncc2cc1-c1ccccc1C(=O)O [Compound 185, 6-(2-Carboxyphenyl)-2-isopropylamino-7-methoxyquinazoline]
23 | ≥ 50% | COc1cc2nc(NC(C)C)ncc2cc1-c1ccccc1O [Compound 186, 6-(2-Hydroxyphenyl)-2-isopropylamino-7-methoxyquinazoline]
24 | ≥ 50% | COc1cc2nc(NC(C)C)ncc2cc1-c1ccccc1C(C)=O [Compound 187, 6-(2-Acetylphenyl)-2-isopropylamino-7-methoxyquinazoline]
25 | ≥ 50% | COc1cc2nc(NC(C)C)ncc2cc1-c1ccccc1F [Compound 190, 6-(2-Fluorophenyl)-2-isopropylamino-7-methoxyquinazoline]
26 | ≥ 50% | COc1cc2nc(NC(C)C)ncc2cc1-c1ccccc1C [Compound 191, 2-Isopropylamino-7-methoxy-6-(2-methylphenyl)quinazoline]
27 | ≥ 50% | COc1cc2nc(NC(C)C)ncc2cc1-c1ccccc1C(F)(F)F [Compound 192, 2-Isopropylamino-7-methoxy-6-(2-trifluoromethylphenyl)quinazoline]
28 | ≥ 50% | COc1ccccc1-c1cc2cnc(NC(C)C)nc2cc1OC [Compound 193, 2-Isopropylamino-7-methoxy-6-(2-methoxyphenyl)quinazoline]
29 | ≥ 50% | COc1cc2nc(NC(C)C)ncc2cc1-c1cccc(O)c1 [Compound 196, 6-(3-Hydroxyphenyl)-2-isopropylamino-7-methoxyquinazoline]
30 | ≥ 50% | COc1cccc(-c2cc3cnc(NC(C)C)nc3cc2OC)c1 [Compound 201, 2-Isopropylamino-7-methoxy-6-(3-methoxyphenyl)quinazoline]
31 | ≥ 50% | COc1cc2nc(NC(C)C)ncc2cc1-c1cccc(C)c1 [Compound 203, 2-Isopropylamino-7-methoxy-6-(3-methylphenyl)quinazoline]
32 | ≥ 50% | COc1cc2nc(NC(C)C)ncc2cc1-c1cccc(F)c1 [Compound 204, 6-(3-Fluorophenyl)-2-isopropylamino-7-methoxyquinazoline]
33 | ≥ 50% | COc1cc2nc(NC(C)C)ncc2cc1-c1ccc(F)cc1C [Compound 206, 6-(4-Fluoro-2-methylphenyl)-2-isopropylamino-7-methoxyquinazoline]
34 | ≥ 50% | COc1cc2nc(NC(C)C)ncc2cc1-c1cccc(OC)c1F [Compound 207, 6-(2-Fluoro-3-methoxyphenyl)-2-isopropylamino-7-methoxyquinazoline]
